# Experimental data taken from patent publication US20250235437A1, “PROTEOLYSIS TARGETING CHIMERA (PROTAC) MOLECULE FOR DEGRADATION OF ENL AND CANCER THERAPY” (Baylor College of Medicine, priority 2022, published 2025).
# Columns and labels:
# Molm-13 cells [1] = experiment: Anti-proliferative activity, Molm-13 cells; format: cell-based; conditions: Molm-13 cells, FIG. 6B
# Molm-13 cells [2] = experiment: Differentiation of Molm-13 cells (CD14, CD11b); format: cell-based; conditions: 3 μM for 5 days
# ENL [3] = target: T1, ENL (Homo sapiens, UniProt Q03111); experiment: ENL degradation in MV4;11 cells (Western blot); format: cell-based; conditions: 500 nM
# T1 construct: tested whether the compounds degrade ENL and AF9 in MV4;11 leukemia cells; endogenous in cells; host or cells: MV4;11; Molm-13
# T1 sequence (Q03111 1-559): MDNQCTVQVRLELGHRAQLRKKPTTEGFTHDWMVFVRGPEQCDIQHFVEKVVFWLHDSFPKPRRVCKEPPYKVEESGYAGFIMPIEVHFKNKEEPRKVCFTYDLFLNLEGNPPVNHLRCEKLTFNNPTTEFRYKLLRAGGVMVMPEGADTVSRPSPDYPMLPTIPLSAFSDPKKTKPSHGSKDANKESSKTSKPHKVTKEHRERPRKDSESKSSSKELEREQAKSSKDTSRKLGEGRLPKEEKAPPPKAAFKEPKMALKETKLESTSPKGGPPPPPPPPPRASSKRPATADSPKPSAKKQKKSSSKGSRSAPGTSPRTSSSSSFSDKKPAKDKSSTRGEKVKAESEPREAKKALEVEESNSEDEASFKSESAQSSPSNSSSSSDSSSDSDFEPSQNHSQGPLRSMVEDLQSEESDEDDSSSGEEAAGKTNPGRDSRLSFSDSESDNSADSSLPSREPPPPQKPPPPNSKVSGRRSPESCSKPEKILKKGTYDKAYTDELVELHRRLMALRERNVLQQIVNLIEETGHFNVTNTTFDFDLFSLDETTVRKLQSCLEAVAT
# Myc = Myc expression in RPMI-8226 cells; format: cell-based; conditions: 4 days
# [4] = target: T2, ENL YEATS-H3K27ac interaction (Homo sapiens, UniProt Q03111); experiment: ALPHA assay, inhibition of ENL YEATS-H3K27ac interaction; conditions: read-out: IC50, inhibition of ENL YEATS-H3K27ac interaction
# T2 sequence (Q03111 1-138 limits assumed): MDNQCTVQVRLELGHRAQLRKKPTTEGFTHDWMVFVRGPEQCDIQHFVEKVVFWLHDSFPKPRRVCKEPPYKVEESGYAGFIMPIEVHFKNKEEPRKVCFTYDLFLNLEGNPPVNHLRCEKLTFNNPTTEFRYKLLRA
# [5] = In vivo toxicity in C57BL/6 mice; conditions: 30 mg/kg/day for 13 days
# Protocol: In vivo antitumor activity of compound 1 was evaluated in a commonly used mouse model of Molm-13 leukemia. First, in vivo toxicity was assessed in C57BL/6 mice.
# ENL [6] = target: T1, ENL; experiment: Nuclear and cytoplasmic ENL levels in MV4;11 cells, 4 days (Western blot); format: cell-based
# Text: Upon treatment of MV4;11 cells with these compounds for 4 days, cytoplasmic and nuclear proteins were separated and subjected to SDS-PAGE/Western blot.
# RPMI-8226 cells = experiment: Anti-proliferative activity, RPMI-8226 cells; format: cell-based
# Hela cell = conditions: Hela cells, footnote b: reported in Li, et al. J Hematol Oncol, 2022; read-out: Anti-proliferative activity EC50, Hela; cited from earlier work
# mutant ENL (mENL) = target: T3, mutant ENL (mENL) (Homo sapiens, UniProt Q03111, INS117NHL); experiment: Degradation of mutant and WT ENL in transfected HEK293T cells; format: cell-based
# T3 construct: expressed in transfected cells; host or cells: HEK293T
# Protocol: Ability of compound 1 to degrade mutant ENL, which has been implicated to cause Wilms tumor, was evaluated. […] A pcDNA3.1(+)-N-DYK plasmid containing a mutant ENL (mENL) with a short insertion of -NHL- between L117 and R118 was transfected into 5×10^5 HEK293T cells. Upon incubation for 24 h, expression of the FLAG-tagged mENL can be dose-dependently detected with as low as […] of the plasmid (FIG. 7A). Using a FLAG antibody appeared to be less quantitative because of a higher background staining for the control samples (FIGS. 7A-7C, left panels).
# With 0.1 μg of the plasmid, compound 1 can efficiently degrade both WT and mutant ENL proteins with Dmax of ˜95% at ˜500 nM upon 24 h incubation (FIG. 7B). […] It was ineffective with […] of the plasmid (not shown), presumably because the rate of mENL synthesis in cells was higher than that of 1-mediated degradation.
# Panc1 = conditions: read-out: EC50, proliferation; Panc1 (pancreatic) cells
# Text: (§1) FIGS. 6A-6G summarize the antitumor activities of ENL-targeting compounds.
# [7] = test system: Kasumi-1, RPMI-8226 and U266 cells; conditions: read-out: EC50, proliferation; AML Kasumi-1 and myeloma RPMI-8226 and U266 cells, range over cell lines
# Text: as §1
# ENL [8] = target: T1, ENL; experiment: ENL degradation in Molm-13 cells (Western blot); format: cell-based; conditions: Molm-13 cells (MLL1-AF9), 24 h
# Protocol: Next, Applicant tested whether the compounds degrade ENL and AF9 in MV4;11 leukemia cells with the .MLL1-AF4 oncogene. Upon compound treatment for 24 h, the cells were washed, lysed, and the lysates subjected to SDS-PAGE (sodium dodecyl sulphate-polyacrylamide gel electrophoresis) followed by detection with Western blot.
# In addition, compound 1 efficiently degraded ENL in another MLL1-r leukemia Molm-13 cells (with MLL1-AF9) with DC50 of 47 nM and Dmax of ˜88% (FIG. 3E). Moreover, significant ENL degradation can be detected in 2 h and depletion occurred within 24 h (FIG. 3F).
# HoxA11 and HoxA13 = experiment: mENL-driven HoxA11 and HoxA13 expression in HEK293T cells; format: cell-based; design: dose or concentration left out as unconfirmed; conditions: 24 h incubation
# Text: Next, Applicant investigated how mENL degradation affect expression of HoxA11 and HoxA13 in this cell model.
# [9] = test system: AF9, AFF4, cyclin-T1 and H3K79me2; experiment: ChIP-qPCR, AF9, AFF4, cyclin-T1 and H3K79me2 at Myc and HoxA9 gene promoters; format: cell-based; conditions: 500 nM
# Text: Chromatin immunoprecipitation (ChIP) followed by qPCR was used to further probe the activity of compound 1 in the gene promoters of Myc and HoxA9, two characteristic MLL1 target genes.
# T3 sequence (Q03111 with tags, fused parts or gaps INS117NHL): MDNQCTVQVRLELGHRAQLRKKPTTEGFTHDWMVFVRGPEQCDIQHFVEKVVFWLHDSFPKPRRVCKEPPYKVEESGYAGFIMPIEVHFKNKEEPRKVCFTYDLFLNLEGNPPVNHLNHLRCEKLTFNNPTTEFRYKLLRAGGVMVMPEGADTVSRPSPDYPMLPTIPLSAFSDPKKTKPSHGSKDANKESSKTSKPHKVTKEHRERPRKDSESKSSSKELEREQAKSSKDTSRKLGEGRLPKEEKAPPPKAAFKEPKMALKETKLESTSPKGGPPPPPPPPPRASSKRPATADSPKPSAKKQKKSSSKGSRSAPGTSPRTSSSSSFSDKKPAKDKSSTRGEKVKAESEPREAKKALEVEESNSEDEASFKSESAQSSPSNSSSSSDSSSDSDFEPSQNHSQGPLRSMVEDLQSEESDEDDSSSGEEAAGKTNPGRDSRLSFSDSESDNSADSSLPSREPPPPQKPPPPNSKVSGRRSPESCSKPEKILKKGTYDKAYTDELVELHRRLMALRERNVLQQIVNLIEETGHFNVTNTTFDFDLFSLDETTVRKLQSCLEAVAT
# T3 sequence (Q96SW2 whole entry partner): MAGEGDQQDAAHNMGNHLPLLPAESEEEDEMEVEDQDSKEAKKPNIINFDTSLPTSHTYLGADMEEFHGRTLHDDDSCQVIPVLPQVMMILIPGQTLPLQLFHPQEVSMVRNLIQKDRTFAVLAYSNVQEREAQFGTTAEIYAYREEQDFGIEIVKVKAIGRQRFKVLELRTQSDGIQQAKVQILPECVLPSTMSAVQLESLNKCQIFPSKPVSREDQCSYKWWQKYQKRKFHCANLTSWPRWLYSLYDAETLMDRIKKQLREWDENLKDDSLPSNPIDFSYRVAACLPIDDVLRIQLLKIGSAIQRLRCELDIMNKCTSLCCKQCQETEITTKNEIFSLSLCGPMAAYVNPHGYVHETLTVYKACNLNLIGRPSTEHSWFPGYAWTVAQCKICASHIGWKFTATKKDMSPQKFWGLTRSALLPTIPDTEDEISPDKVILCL
compound,measurement,setting,value
C[C@H]1CCCN1Cc1nc2cc(NC(=O)c3ccc4c(cnn4CCCCCCCCNc4cccc5c4C(=O)N(C4CCC(=O)NC4=O)C5=O)c3)ccc2[nH]1 (stereo partly shown) [Compound 1],time-dependent activity against cell proliferation,Molm-13 cells [1],did not inhibit cell proliferation during the first 4 days
same,"cell differentiation (CD14, CD11b)",Molm-13 cells [2],induced cell differentiation
same,time at which significant ENL degradation can be detected,ENL [3],2 h
same,time to ENL depletion,ENL [3],≤ 24 h
same,expression of MYC,Myc,dose-dependently decreased expression of MYC
same,IC50,[4],170 nM
same,body weight,[5],did not cause significant weight losses
same,hematopoiesis and overt toxicities,[5],did not inhibit normal hematopoiesis or cause other overt toxicities
same,blood cell counts vs control,[5]; blood test on day-14,no significant differences in blood cell counts
same,ENL level in the cytoplasmic extract,ENL [6],significantly reduced
same,ENL level in the nucleus,ENL [6],significantly reduced dose-dependently and almost depleted with 500 nM
same,EC50,RPMI-8226 cells,1200 ± 230 nM
same,EC50,Hela cell,> 50000 nM
same,"Dmax, WT and mutant ENL","mutant ENL (mENL); 0.1 μg plasmid, ~500 nM, 24 h incubation",~95%
same,degradation of WT and mutant ENLs,"mutant ENL (mENL); 0.2 μg plasmid, 500 nM",reduced efficiency
same,degradation of WT and mutant ENLs,mutant ENL (mENL); 1 g of the plasmid,ineffective
same,EC50,Panc1,> 50000 nM
same,EC50,[7],1100 to 4100 nM
same,DC50,ENL [8],47 nM
same,"Dmax, ENL",ENL [8],~88%
same,overexpression of HoxA11 and HoxA13,HoxA11 and HoxA13,significantly inhibited overexpression of HoxA11 and HoxA13
same,"AF9, AFF4, cyclin-T1 and H3K79me2 at Myc and HoxA9 gene loci",[9],did not significantly lower down
